≈ marks a conversion by molar mass, not a printed value. Calls of active or inactive are those of the source. The rule behind the calls is not given here.

Test [1] can be described thus: (§1) Cytotoxicity against human Hep3B cells. The format is functional, Hep 3B2. The note with it: read-out: ED50 (the source's name).
A further test concerns KB. Description: Cytotoxicity against human KB cells. Particulars: for EC50: read-out: ED50 (the source's name). The format is functional.
The test system of another test is COLO 205. Description: Cytotoxicity against human COLO205 cells. Format: functional. Particulars: for EC50: read-out: ED50 (the source's name).
The test system of the next test is Hep 3B2. Described as §1. The format is functional.

In the case of `COc1cc(O)c2c(=O)c3cccc(O)c3n(C)c2c1OC` [CITRUSININE-I], the EC50 in test [1] came to 6.6 mg/L (≈ 21.9 µM); with KB it was 0.09 mg/L (≈ 0.299 µM); in the test with COLO 205 it was 6.3 mg/L (≈ 20.9 µM).

With `COc1c(O)cc(O)c2c(=O)c3cccc(O)c3n(C)c12` [CITRUSININE-II], the ED50 entry in the test with Hep 3B2 and in the test with COLO 205 was “inactive” throughout. Further, the EC50 with KB is 0.82 mg/L (≈ 2.85 µM).

As to `CC(C)=CCc1c2c(c3[nH]c4ccccc4c(=O)c3c1O)C=CC(C)(C)O2` [SEVERIFOLINE], the ED50 entry in the test with Hep 3B2 and in the test on COLO 205 was “inactive” throughout. For the same compound, in the test on KB, the EC50 stood at 0.09 mg/L (≈ 0.249 µM).

As to `COc1c(/C=C/C(C)C)c(O)c2c(=O)c3cccc(O)c3[nH]c2c1CC=C(C)C`, the ED50 result in the test on Hep 3B2 and in the test with KB was “inactive” each time. In the test on COLO 205, the EC50 was found to be 1.2 mg/L (≈ 3.05 µM).

On to `COc1c(O)ccc2c(=O)c3c(O)cc(O)c(OC)c3n(C)c12`, for which the figures for the EC50 (in test [1]; with KB) were 5.3 mg/L (≈ 16.7 µM) and 0.22 mg/L (≈ 0.693 µM), respectively. In the test with COLO 205, the ED50 entry was “inactive”.

On to `CC(C)=CCc1c2c(c(O)c3c(=O)c4ccccc4[nH]c13)C=CC(C)(C)O2`, for which the ED50 result with Hep 3B2 and in the test with KB was “inactive” in each case. Moreover, in the test on COLO 205, the EC50 came out at 0.58 mg/L (≈ 1.6 µM).

Values taken from ChEMBL document CHEMBL1155745, “Constituents of the root bark of Severinia buxifolia collected in Hainan” (2001).
